From patent US7893271B2, “Benzimidazole carbamates and (thio) carbamates, and the synthesis and use thereof” (Intervet International B.V., priority 2005, dated 2011)
≈ marks a conversion by molar mass, not a printed value. Where “and” joins values, the source holds several entries; their conditions need not be identical. Equal values may be shown once. Read-outs that look alike come from different tables or passages of the source.

Columns and labels:
[1] = solubility in water of compounds of the invention
T. colubriformis = assay: anthelmintic efficacy in animals experimentally infected with T. colubriformis; assay type: in vivo, Meriones unguiculatus
Experimental: (§1) The compounds were tested at doses of 3 mg/kg bodyweight (BW), 1 mg/kg BW and 0.3 mg/kg BW.
(§2) The animals were orally infected L3-larvae of each T. axei and T. colubriformis. On D 19 post infectionem (PI) animals were treated once IP, SC or PO with the test compounds in 10% DMF/90% water a dose of 3 mg/kg BW, 1 mg/kg BW or 0.3 mg/kg BW. Three days after treatment animals were necropsied and worm burden in stomach and small intestine was determined. Efficacy was defined as the reduction of the mean worm count (geometric mean) in the treatment groups in comparison to the control group. The dose-response relationship was investigated by calculating Pearson's coefficient of correlation.

[2] = in water; literature; cited from earlier work
T. axei = assay: anthelmintic efficacy in animals experimentally infected with Trichostrongylus axei; assay type: in vivo, Meriones unguiculatus
Experimental: as §1, §2

[3] = test system: Ascaridia galli (intestinal roundworm of chicken), larval stage 3 (L3); assay: in vitro larval assay, minimum effective concentration; assay type: cell-based; details: day 5, 20 larvae per well, microscopic examination
Experimental: (§3) Anthelmintic effects of the compounds of the present invention were tested in vitro using gut welling larval stages of two parasitic nematode species: Ascaridia galli (intestinal roundworm of chicken), larval stage 3 (L3), and Oesophagostomum dentatum (nodular worm of swine), larval stages 3 and 4 (L3; LA).
(§4) Principle of the assays: Various concentrations of compounds were incubated in 96 well microtiter plates, in which parasites were then distributed at 20 larvae per well. The anthelmintic effects were classified at day 5 by microscopic examination assessing mortality, damage, motility, progression of development and neutral red uptake by the larvae in comparison to a DMSO-control and the standard anthelmintics fenbendazole. The anthelmintic effects were defined by the minimum effective concentration (MEC) as reflected in table 1.

[4] = test system: Oesophagostomum dentatum (nodular worm of swine), larval stages 3 and 4; assay: as above; assay type: cell-based; details: day 5, 20 larvae per well
Experimental: as §3, §4

Haemonchus contortus = assay: anthelmintic efficacy in animals experimentally infected with Haemonchus contortus; assay type: in vivo, Meriones unguiculatus
Experimental: as §1
The animals were orally infected with L3-larvae of H. contortus. On D 10 post infectionem (PI) animals were treated once IP, SC or PO with the test compounds in 10% DMF/90% water at doses of 3.0 mg/kg BW, 1.0 mg/kg BW or 0.3 mg/kg BW. Three days after treatment animals were necropsied and larvae burden in stomachs was determined. Efficacy was defined as the reduction of the mean larvae count (geometric mean) in the treatment groups in comparison to the control group. The dose-response relationship was investigated by calculating Pearson's coefficient of correlation.

[5] = reported; cited from earlier work
[6] = 0.3 mg/kg BW once, IP (fenbendazole equivalent 0.3; Compound A 0.2 mg/kg)
[7] = 0.3 mg/kg BW once, PO (fenbendazole equivalent 0.3; Compound A 0.2 mg/kg)
[8] = 0.3 mg/kg BW once, SC (fenbendazole equivalent 0.3; Compound A 0.2 mg/kg)
[9] = 1 mg/kg BW once, IP (fenbendazole equivalent 1.0; Compound A 0.6 mg/kg)
[10] = 1 mg/kg BW once, PO (fenbendazole equivalent 1.0; Compound A 0.6 mg/kg)
[11] = 1 mg/kg BW once, SC (fenbendazole equivalent 1.0; Compound A 0.6 mg/kg)
[12] = 3 mg/kg BW once, IP (fenbendazole equivalent 3.0; Compound A 1.8 mg/kg)
[13] = 3 mg/kg BW once, IP (fenbendazole equivalent 3.0; Compound A 1.8 mg/kg), listed as Fenbendazole
[14] = 3 mg/kg BW once, PO (fenbendazole equivalent 3.0; Compound A 1.8 mg/kg)
[15] = 3 mg/kg BW once, PO (fenbendazole equivalent 3.0; Compound A 1.8 mg/kg), listed as Fenbendazole
[16] = 3 mg/kg BW once, SC (fenbendazole equivalent 3.0; Compound A 1.8 mg/kg)
[17] = 3 mg/kg BW once, SC (fenbendazole equivalent 3.0; Compound A 1.8 mg/kg), listed as Fenbendazole

Molecule	Reduction worm number (%) T. colubriformis (T. colubriformis; [6])	Reduction worm number (%) T. colubriformis (T. colubriformis; [7])	Reduction worm number (%) T. colubriformis (T. colubriformis; [8])	Reduction worm number (%) T. colubriformis (T. colubriformis; [9])	Reduction worm number (%) T. colubriformis (T. colubriformis; [10])	Reduction worm number (%) T. colubriformis (T. colubriformis; [11])	Reduction worm number (%) T. colubriformis (T. colubriformis; [12])	Reduction worm number (%) T. colubriformis (T. colubriformis; [14])	Reduction worm number (%) T. colubriformis (T. colubriformis; [16])	solubility [2]	Reduction worm number (%) T. axei (T. axei; [6])	Reduction worm number (%) T. axei (T. axei; [7])	Reduction worm number (%) T. axei (T. axei; [8])	Reduction worm number (%) T. axei (T. axei; [9])	Reduction worm number (%) T. axei (T. axei; [10])	Reduction worm number (%) T. axei (T. axei; [11])	Reduction worm number (%) T. axei (T. axei; [12])	Reduction worm number (%) T. axei (T. axei; [14])	Reduction worm number (%) T. axei (T. axei; [16])	Reduction worm number (%) H. contortus larvae (Haemonchus contortus; [6])	also measured
CCCSc1ccc2c(c1)nc(NC(=O)OC)n2COP(=O)([O-])[O-].[Na+].[Na+] [(1-phosphonooxymethyl-5- and 6-propylsulfanyl-1(H)-benzoimidazol-2-yl)-carbamic acid methyl esters]	–	–	–	–	–	–	–	–	–	–	–	–	–	–	–	–	–	–	–	–	solubility ([1]; water): ≥ 50 mM
COC(=O)Nc1nc2ccc(Sc3ccccc3)cc2[nH]1 [fenbendazole, reference compound]	79.33%	68.75%	43.18%	80.04%	80.04%	81.10%	100%	100%	100%	lower than 0.05 μg/mL	−283.85%	−115.44%	82.15%	80.94%	88.80%	82.15%	100%	100%	100%	80.63%	Reduction worm number (%) T. colubriformis (T. colubriformis; [13]): 100.00%; Reduction worm number (%) T. colubriformis (T. colubriformis; [15]): 100.00%; Reduction worm number (%) T. colubriformis (T. colubriformis; [17]): 100.00%; Reduction worm number (%) T. axei (T. axei; [13]): 100.00%; Reduction worm number (%) T. axei (T. axei; [15]): 100.00%; Reduction worm number (%) T. axei (T. axei; [17]): 100.00%; Minimum effective concentrations A. galli (L3) [3]: 0.050 µM; Minimum effective concentrations O. dentatum (L3) ([4]; L3): 1.000 µM; Minimum effective concentrations O. dentatum (L4) ([4]; L4): 0.025 µM; Reduction worm number (%) H. contortus larvae (Haemonchus contortus; [7]): 91.73%; Reduction worm number (%) H. contortus larvae (Haemonchus contortus; [8]): 88.36%; Reduction worm number (%) H. contortus larvae (Haemonchus contortus; [9]): 89.33%; Reduction worm number (%) H. contortus larvae (Haemonchus contortus; [10]): 78.05%; Reduction worm number (%) H. contortus larvae (Haemonchus contortus; [11]): 89.16%; Reduction worm number (%) H. contortus larvae (Haemonchus contortus; [12]): 100.00%; Reduction worm number (%) H. contortus larvae (Haemonchus contortus; [14]): 96.49%; Reduction worm number (%) H. contortus larvae (Haemonchus contortus; [16]): 95.10%
CCCSc1ccc([N+](=O)[O-])c(N/C(=N/CCS(=O)(=O)O)NC(=O)OC)c1 [netobimin]	–	–	–	–	–	–	–	–	–	–	–	–	–	–	–	–	–	–	–	–	embryonal toxicity [5]: reported to cause embryonal toxicity
COc1ccc2[nH]c([S+]([O-])Cc3ncc(C)c(OC)c3C)nc2c1 (centres unmarked) [omeprazole]	–	–	–	–	–	–	–	–	–	500 µg/mL (≈ 1450 µM)	–	–	–	–	–	–	–	–	–	–	–
(5- and 6-phenylsulfanyl-1-phosphonooxymethyl-1(H)-benzoimidazol-2-yl)-carbamic acid methyl esters [Compound A]	−50.17%	−3.71%	−106.50%	28.18%	37.27%	68.61%	93.26%	100.00%	85.70%	–	69.66%	59.20%	−43.64%	83.98%	96.71%	82.98%	100.00%	98.00%	100.00%	65.02%	overall efficacy compared with fenbendazole (T. colubriformis; T. colubriformis, all doses and routes): same efficacy as treatment with fenbendazole; Reduction worm number (%) T. axei (T. axei; 0.3 mg/kg BW once, SC (fenbendazole equivalent 0.3; Compound A 0.2 mg/kg), listed as compound A): 43.64%; Reduction worm number (%) T. axei (T. axei; 3 mg/kg BW once, IP (fenbendazole equivalent 3.0; Compound A 1.8 mg/kg), listed as compound A): 100%; Reduction worm number (%) T. axei (T. axei; 3 mg/kg BW once, SC (fenbendazole equivalent 3.0; Compound A 1.8 mg/kg), listed as compound A): 100%; overall efficacy compared with fenbendazole (T. axei; T. axei, all doses and routes): same efficacy as treatment with fenbendazole; Reduction worm number (%) H. contortus larvae (Haemonchus contortus; [7]): 87.00%; Reduction worm number (%) H. contortus larvae (Haemonchus contortus; [8]): 47.40%; Reduction worm number (%) H. contortus larvae (Haemonchus contortus; [9]): 90.65%; Reduction worm number (%) H. contortus larvae (Haemonchus contortus; [10]): 88.62%; Reduction worm number (%) H. contortus larvae (Haemonchus contortus; [11]): 87.61%; Reduction worm number (%) H. contortus larvae (Haemonchus contortus; [12]): 93.81%; Reduction worm number (%) H. contortus larvae (Haemonchus contortus; [14]): 90.81%; Reduction worm number (%) H. contortus larvae (Haemonchus contortus; [16]): 94.84%; overall efficacy compared with fenbendazole (Haemonchus contortus; H. contortus, all doses and routes): same efficacy as treatment with fenbendazole
(5- and 6-phenylsulfanyl-1-phosphonooxymethyl-1(H)-benzoimidazol-2-yl)-carbamic acid methyl esters di-sodium salts	–	–	–	–	–	–	–	–	–	–	–	–	–	–	–	–	–	–	–	–	solubility in water [1]: 132 mM and 67 g/L
